Data: US8952024B2, “Herbicidal pyrimidone derivatives” (E I du Pont de Nemours and Company, priority 2009, dated 2015)

Key:
Assay in all cases: Test D pre-/postemergence plant response
Assay type in all cases: in vivo
[1] = test system: ragweed (common ragweed, Ambrosia elatior)
How it was run: (§1)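 Seeds were sown in a loam–sand blend and sprayed preemergence with compound in a non-phytotoxic solvent mixture containing surfactant; plants at 2–18 cm (1- to 4-leaf stage) received the same formulation postemergence. After 14 to 21 days in a greenhouse, injury was rated visually against untreated controls (0 = no effect, 100 = complete control).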

[2] = test system: itchgrass (Rottboellia cochinchinensis)
How it was run: as §1

[3] = test system: spanishneedles (Bidens bipinnata)
How it was run: as §1

[4] = test system: sowthistle (common sowthistle, Sonchus oleraceous)
How it was run: as §1

[5] = test system: dayflower (Virginia (VA) dayflower, Commelina virginica)
How it was run: as §1

[6] = test system: green foxtail (Setaria viridis)
How it was run: as §1

[7] = Postemergence, 31 g ai/ha, scale 0 to 100
[8] = Postemergence, 125 g ai/ha, scale 0 to 100 (0 no effect, 100 complete control)
[9] = Postemergence, 16 g ai/ha, scale 0 to 100
[10] = Preemergence, 16 g ai/ha, scale 0 to 100, 0 no effect, 100 complete control
[11] = Preemergence, 31 g ai/ha, scale 0 to 100 (0 no effect, 100 complete control)
[12] = Preemergence, 125 g ai/ha, scale 0 to 100
[13] = Postemergence, 62 g ai/ha, scale 0 to 100 (0 no effect, 100 complete control)
[14] = Preemergence, 62 g ai/ha, scale 0 to 100
[15] = Postemergence, 250 g ai/ha, scale 0 to 100 (0 no effect, 100 complete control)
[16] = Preemergence, rate not given, scale 0 to 100, 0 no effect, 100 complete control

O=C1CCCC(O)=C1C(=O)c1cnc(-c2ccccc2)n(CC2CCCO2)c1=O (stereo not drawn) [Compound 59]
Plant response rating, Ragweed [1, 7]: 70 | Plant response rating, Ragweed [1, 8]: 80 | Plant response rating, Ragweed [1, 9]: 70 | Plant response rating, Ragweed [1, 10]: 0 | Plant response rating, Ragweed [1, 11]: 50 | Plant response rating, Ragweed [1, 12]: 100 | Plant response rating, Itchgrass [2, 7]: 15 | Plant response rating, Itchgrass [2, 13]: 15 | Plant response rating, Itchgrass [2, 8]: 75 | Plant response rating, Itchgrass [2, 9]: 0 | Plant response rating, Itchgrass [2, 10]: 0 | Plant response rating, Itchgrass [2, 11]: 0 | Plant response rating, Itchgrass [2, 14]: 0 | Plant response rating, Itchgrass [2, 12]: 20 | Plant response rating, Spanishneedles [3, 7]: 50 | Plant response rating, Spanishneedles [3, 13]: 70 | Plant response rating, Spanishneedles [3, 8]: 70 | Plant response rating, Spanishneedles [3, 9]: 30 | Plant response rating, Spanishneedles [3, 10]: 0 | Plant response rating, Spanishneedles [3, 11]: 0 | Plant response rating, Spanishneedles [3, 12]: 90 | Plant response rating, Sowthistle [4, 7]: 100 | Plant response rating, Sowthistle [4, 13]: 100 | Plant response rating, Sowthistle [4, 8]: 100 | Plant response rating, Sowthistle [4, 9]: 70 | Plant response rating, Sowthistle [4, 10]: 0 | Plant response rating, Sowthistle [4, 11]: 95 | Plant response rating, Sowthistle [4, 12]: 100 | Plant response rating, Dayflower, VA [5, 13]: 60 | Plant response rating, Dayflower, VA [5, 9]: 25 | Plant response rating, Dayflower, VA [5, 11]: 0 | Plant response rating, Dayflower, VA [5, 14]: 35 | Plant response rating, Dayflower, VA [5, 12]: 35 | Plant response rating, Foxtail, Green [6, 7]: 5 | Plant response rating, Foxtail, Green [6, 13]: 20 | Plant response rating, Foxtail, Green [6, 8]: 35 | Plant response rating, Foxtail, Green [6, 9]: 0 | Plant response rating, Foxtail, Green [6, 10]: 0 | Plant response rating, Foxtail, Green [6, 11]: 0 | Plant response rating, Foxtail, Green [6, 14]: 0 | Plant response rating, Foxtail, Green [6, 12]: 0

CCCCn1c(-c2cc(F)cc(F)c2)ncc(C(=O)C2=C(O)C3CCC(C3)C2=O)c1=O (stereo not drawn) [Compound 245]
Plant response rating, Ragweed [1, 7]: 70 | Plant response rating, Ragweed [1, 13]: 75 | Plant response rating, Ragweed [1, 8]: 75 | Plant response rating, Ragweed [1, 15]: 75 | Plant response rating, Itchgrass [2, 7]: 70 | Plant response rating, Itchgrass [2, 13]: 70 | Plant response rating, Itchgrass [2, 8]: 75 | Plant response rating, Itchgrass [2, 15]: 75 | Plant response rating, Spanishneedles [3, 7]: 65 | Plant response rating, Spanishneedles [3, 13]: 70 | Plant response rating, Spanishneedles [3, 8]: 70 | Plant response rating, Spanishneedles [3, 15]: 75 | Plant response rating, Sowthistle [4, 7]: 95 | Plant response rating, Sowthistle [4, 13]: 95 | Plant response rating, Sowthistle [4, 8]: 95 | Plant response rating, Sowthistle [4, 15]: 95 | Plant response rating, Dayflower, VA [5, 7]: 20 | Plant response rating, Dayflower, VA [5, 13]: 35 | Plant response rating, Dayflower, VA [5, 8]: 65 | Plant response rating, Dayflower, VA [5, 15]: 75 | Plant response rating, Foxtail, Green [6, 7]: 85 | Plant response rating, Foxtail, Green [6, 13]: 90 | Plant response rating, Foxtail, Green [6, 8]: 95 | Plant response rating, Foxtail, Green [6, 15]: 95

COCCn1c(-c2ccsc2)ncc(C(=O)C2=C(O)C3CCC(C3)C2=O)c1=O (stereo not drawn) [Compound 228]
Plant response rating, Ragweed [1, 8]: 75 | Plant response rating, Itchgrass [2, 8]: 65 | Plant response rating, Spanishneedles [3, 8]: 70 | Plant response rating, Sowthistle [4, 8]: 98 | Plant response rating, Dayflower, VA [5, 8]: 85 | Plant response rating, Foxtail, Green [6, 8]: 80

COCCn1c(-c2cccc(C)c2)ncc(C(=O)C2=C(O)C3CCC(C3)C2=O)c1=O (stereo not drawn) [Compound 233]
Plant response rating, Ragweed [1, 7]: 75 | Plant response rating, Ragweed [1, 13]: 75 | Plant response rating, Ragweed [1, 8]: 98 | Plant response rating, Ragweed [1, 9]: 65 | Plant response rating, Ragweed [1, 10]: 50 | Plant response rating, Ragweed [1, 11]: 70 | Plant response rating, Ragweed [1, 12]: 98 | Plant response rating, Ragweed [1, 16]: 95 | Plant response rating, Itchgrass [2, 7]: 65 | Plant response rating, Itchgrass [2, 13]: 70 | Plant response rating, Itchgrass [2, 8]: 80 | Plant response rating, Itchgrass [2, 9]: 50 | Plant response rating, Itchgrass [2, 10]: 0 | Plant response rating, Itchgrass [2, 11]: 0 | Plant response rating, Itchgrass [2, 14]: 0 | Plant response rating, Itchgrass [2, 12]: 20 | Plant response rating, Spanishneedles [3, 7]: 35 | Plant response rating, Spanishneedles [3, 13]: 50 | Plant response rating, Spanishneedles [3, 8]: 60 | Plant response rating, Spanishneedles [3, 9]: 35 | Plant response rating, Spanishneedles [3, 10]: 0 | Plant response rating, Spanishneedles [3, 11]: 50 | Plant response rating, Spanishneedles [3, 12]: 95 | Plant response rating, Spanishneedles [3, 16]: 85 | Plant response rating, Sowthistle [4, 7]: 100 | Plant response rating, Sowthistle [4, 8]: 100 | Plant response rating, Sowthistle [4, 9]: 90 | Plant response rating, Sowthistle [4, 10]: 0 | Plant response rating, Sowthistle [4, 11]: 50 | Plant response rating, Sowthistle [4, 12]: 100 | Plant response rating, Dayflower, VA [5, 7]: 35 | Plant response rating, Dayflower, VA [5, 13]: 35 | Plant response rating, Dayflower, VA [5, 8]: 60 | Plant response rating, Dayflower, VA [5, 9]: 15 | Plant response rating, Dayflower, VA [5, 10]: 0 | Plant response rating, Dayflower, VA [5, 11]: 80 | Plant response rating, Dayflower, VA [5, 14]: 100 | Plant response rating, Dayflower, VA [5, 12]: 100 | Plant response rating, Foxtail, Green [6, 7]: 10 | Plant response rating, Foxtail, Green [6, 13]: 30 | Plant response rating, Foxtail, Green [6, 8]: 35 | Plant response rating, Foxtail, Green [6, 9]: 5 | Plant response rating, Foxtail, Green [6, 10]: 0 | Plant response rating, Foxtail, Green [6, 11]: 0 | Plant response rating, Foxtail, Green [6, 14]: 0 | Plant response rating, Foxtail, Green [6, 12]: 0

COCCn1c(-c2cccc(F)c2)ncc(C(=O)C2=C(O)C3CCC(C3)C2=O)c1=O (stereo not drawn) [Compound 235]
Plant response rating, Ragweed [1, 7]: 70 | Plant response rating, Ragweed [1, 13]: 70 | Plant response rating, Ragweed [1, 8]: 80 | Plant response rating, Ragweed [1, 15]: 80 | Plant response rating, Itchgrass [2, 7]: 70 | Plant response rating, Itchgrass [2, 13]: 75 | Plant response rating, Itchgrass [2, 8]: 80 | Plant response rating, Itchgrass [2, 15]: 90 | Plant response rating, Spanishneedles [3, 7]: 65 | Plant response rating, Spanishneedles [3, 13]: 70 | Plant response rating, Spanishneedles [3, 8]: 80 | Plant response rating, Spanishneedles [3, 15]: 85 | Plant response rating, Sowthistle [4, 7]: 98 | Plant response rating, Sowthistle [4, 13]: 98 | Plant response rating, Sowthistle [4, 8]: 98 | Plant response rating, Sowthistle [4, 15]: 98 | Plant response rating, Dayflower, VA [5, 7]: 60 | Plant response rating, Dayflower, VA [5, 13]: 70 | Plant response rating, Dayflower, VA [5, 8]: 75 | Plant response rating, Dayflower, VA [5, 15]: 75 | Plant response rating, Foxtail, Green [6, 7]: 70 | Plant response rating, Foxtail, Green [6, 13]: 95 | Plant response rating, Foxtail, Green [6, 8]: 98 | Plant response rating, Foxtail, Green [6, 15]: 98
